Assay results: ChEMBL document CHEMBL2331281, “Isolation of ciliatamide D from a marine sponge Stelletta sp. and a reinvestigation of the configuration of ciliatamide A” (J Nat Prod, 2013)
Active and inactive are the calls of the source. No cut-off for these calls is given here.

What was measured:
[1] = biological target: Cathepsin B (Homo sapiens) (UniProt P07858); experiment: Inhibition of cathepsin B (unknown origin) using Z-Arg-Arg-AMC as substrate at 50 ug/ml after 30 mins by fluorescence assay
[2] = system: HeLa; experiment: Cytotoxicity against human HeLa cells at 50 ug/ml after 72 hrs by MTT assay; assay type: functional, cell-based

inhibition [1]: inactive
SMILES: C=CCCCCCCCC(=O)N(C)[C@@H](CC[S+](C)[O-])C(=O)N[C@H]1CCCCNC1=O (mixture of isomers)
Activity [2]: inactive
